{"source": "patent US8981066B2", "about": "“Epigenetic mechanisms related to DNA damage and aging” (Buck Institute for Research on Aging, priority 2011, dated 2015)", "key": {"H1.0 gene": {"system": "H1.0 gene", "assay": "H1.0 gene expression in hADSCs (qPCR)", "type": "cell-based, human", "settings": "bleomycin-treated hADSCs", "description": "FIGS. 4A-4C illustrate the dynamics of the meK172meK180 methylation of hi stone H1.0 upon genotoxic stress-induced senescence of human adult stem (hADSC). FIG. 4A: Cells we treated with 50 μg/ml bleomycin for 3 hrs. Drug was replaced with normal DMEM12 media and cells were assessed for ^meK172^meK180 histone H1 methylation and DNA damage γH2AX at different time points (panels A, B, and C) by immunohistochemistry. Cellular senescence was estimated by senescence-associated β-Gal activity (phase-contrast). FIGS. 4B and 4C show the results of Western blots using H1.0 methyl antibodies in crude cellular extracts from human ADSCs treated with Rapamycin (FIG. 4B) or rampamyucin and bleomycin (FIG. 4C). […] However, acute DDR results in transcriptional up regulation of H1.0 gene expression that could be influenced by TOR pathway suppression. 1, 2, 3—represent samples of three independent hADSCs cultures used in western blot and qPCR experiments.\nCellular senescence is believed to be associated with accumulation of persistent DNA damage (Sedelnikova et al. (2008) Aging Cell 7: 89-100; Rodier et al. (2009) Nat. Cell Biol., 11: 973-979) and activation of DNA damage response (DDR) pathways (Wang et al. (2011) Cell Cycle 10: 3016-3030; Sedelnikova et al. (2004) Nat. Cell Biol., 6: 168-170; Herbig et al. (2004) Molecular Cell, 14: 501-513; d'Adda et al. (2003) Nature 426: 194-198). […]"}, "[1]": {"system": "meK172meK180 methylated form of H1.0 in hADSC cells", "assay": "H1.0 meK172meK180 methylation and localisation in hADSCs upon bleomycin genotoxic stress (immunostaining, Western blot)", "type": "cell-based, human", "settings": "for nuclear meK172meK180 H1 methylation (initial DNA damage response): hADSC, bleomycin 50 μg/ml", "description": "FIGS. 4A-4C illustrate the dynamics of the meK172meK180 methylation of hi stone H1.0 upon genotoxic stress-induced senescence of human adult stem (hADSC). FIG. 4A: Cells we treated with 50 μg/ml bleomycin for 3 hrs. Drug was replaced with normal DMEM12 media and cells were assessed for ^meK172^meK180 histone H1 methylation and DNA damage γH2AX at different time points (panels A, B, and C) by immunohistochemistry. Cellular senescence was estimated by senescence-associated β-Gal activity (phase-contrast). […] 1, 2, 3—represent samples of three independent hADSCs cultures used in western blot and qPCR experiments.\nCellular senescence is believed to be associated with accumulation of persistent DNA damage and activation of DNA damage response (DDR) pathways. In the DDR pathway, some chromatin modifications seem to play a critical role in marking lesions or recruiting factors involved in repair, thus facilitating the function of repair proteins. The best characterized in this context are histone H2AX and H1 phosphorylation events."}}, "data": [{"substance": "bleomycin", "values": [{"measurement": "H1.0 transcription upon acute DNA damage", "setting": "H1.0 gene", "result": "drastic increase"}, {"measurement": "localisation of met H1.0 upon genotoxic-stress induced senescence", "setting": "[1]; bleomycin-treated hADSCs", "result": "eviction of met H1.0 into the cytoplasm"}, {"measurement": "nuclear meK172meK180 H1 methylation (initial DNA damage response)", "setting": "[1]", "result": "triggers"}, {"measurement": "nuclear meK172meK180 H1 methylation (initial DNA damage response)", "setting": "[1]; listed as bleomycine", "result": "rapid and robust nuclear H1.0 methylation"}]}]}
